Experimental data: patent US20220370502A1, “Active Ingredient of an Erythrocytes-containing Composition” (priority 2020, published 2022)

Key:
Format in all cases: cell-based
human erythrocytes [1] = experiment: Annexin-V-FLUOS binding (eryptosis) by flow cytometry
Method: (§1) Single treatment: Erythrocytes were treated with costunolide or chelerythrine for 24 hours (see FIGS. 2, 4, 5 and 6). Double treatments: Erythrocytes were first pre-treated with chelerythrine for two hours, followed by treatment with costunolide for further 24 hours (see FIGS. 3 and 7). Thus, the incubation time for chelerythrine-treated erythrocytes lasted 26 h and 24 h for costunolide-treated erythrocytes. In single (0.2% v/v DMSO) and double treatments (0.4% v/v DMSO), DMSO-treated cells served as negative controls. […]
(§2) At the end of the incubation period, 0.1 ml erythrocytes (3×10^6) were added in 500 μl annexin wash buffer, mixed thoroughly and pelleted by centrifuging. […] After an incubation period of 20 minutes in the dark at room temperature, 200 μl annexin binding buffer was added to each sample, thoroughly vortexed to obtain single cell suspensions, and analyzed by flow cytometry on a FACS Calibur (Becton Dickinson, Heidelberg, Germany). In the FL1-channel, binding of annexin-V-FLUOS (eryptosis) was measured. Erythrocyte volume was determined by forward scatter (FSC). To this end, corresponding erythrocytes suspensions were immediately analysed by flow cytometry.

human erythrocytes [2] = experiment: Erythrocyte volume by forward scatter (cell shrinkage); settings: single treatment with increasing concentrations of costunolide, 24 h, FIG. 2
Method: as §1, §2

human erythrocytes [3] = experiment: Hemolysis measurement (hemoglobin in supernatant, 405 nm); settings: costunolide treatment, 24 h, FIG. 2C
Method: After 24 hours treatment of erythrocytes (0.6% Hct) with costunolide and/or chelerythrine, hemolysis was determined. 600 μl cell suspension form each condition containing 3.6×10^6 erythrocytes centrifuged for 8 min at 420×g, 4° C., and the supernatants were harvested. As a measure of hemolysis, the hemoglobin (Hb) concentration of the supernatants was determined photometrically at 405 nm. The absorption of the supernatant of DMSO-treated erythrocytes lysed in 600 μl distilled water was defined as 100%. From this the standard curve was made by serial dilution.

human erythrocytes [4] = experiment: Intracellular GSH and GSSG analysis; settings: costunolide 1-80 μM, 24 h, FIG. 5
Method: For single (FIG. 5) or double treatments (FIG. 7), pure RBCs (0.6% Hct) were suspended in 30 ml Ringer solution and treated with varying concentrations of costunolide (1-80 μM) or different concentrations of chelerythrine (1-10 μM) and a fixed costunolide concentration (80 μM). DMSO-treated RBCs served as negative control. After incubation, 58 μl from a 310 mM NEM stock was given to each condition, gently mixed for 1 min and then centrifuged 10 min long at 10 C and 228×g. Supernatants were removed and the cell pellets were stored at −20° C. until analyses. GSH and GSSG were measured on the clear supernatant obtained by treatment of 0.1 ml RBCs with 0.12 ml 15% (w/v) trichloroacetic acid. […] GSSG was measured at the spectrophotometer by the GSH recycling method with slight modifications (Giustarini D. et al. 2013; Nat. Protoc. 8: 1660-1669, “Analysis of GSH and GSSG after derivatization with N-ethylmaleimide”). One aliquot of RBCs ([…]) was hemolyzed by a 1:200 dilution with H2O for haemoglobin determination (Di lorio E.E. 1981; Methods Enzymol. 76: 57-72 “Preparation of derivatives of ferrous and ferric hemoglobin”). The HPLC analyses were carried out by an Agilent series 1100 instrument. The spectrophotometric analyses were performed by a Jasco V-530 instrument.

[5] = target: T1, glucose-6-phosphate dehydrogenase (G6PDH) (Homo sapiens, UniProt P11413); experiment: Determination of G6PDH activity in erythrocyte lysates; settings: costunolide treatment of erythrocytes, 24 h, FIG. 6
T1 construct: endogenous in cells; host or cells: human erythrocytes (RBCs), hemolysate
T1 sequence (P11413 whole entry): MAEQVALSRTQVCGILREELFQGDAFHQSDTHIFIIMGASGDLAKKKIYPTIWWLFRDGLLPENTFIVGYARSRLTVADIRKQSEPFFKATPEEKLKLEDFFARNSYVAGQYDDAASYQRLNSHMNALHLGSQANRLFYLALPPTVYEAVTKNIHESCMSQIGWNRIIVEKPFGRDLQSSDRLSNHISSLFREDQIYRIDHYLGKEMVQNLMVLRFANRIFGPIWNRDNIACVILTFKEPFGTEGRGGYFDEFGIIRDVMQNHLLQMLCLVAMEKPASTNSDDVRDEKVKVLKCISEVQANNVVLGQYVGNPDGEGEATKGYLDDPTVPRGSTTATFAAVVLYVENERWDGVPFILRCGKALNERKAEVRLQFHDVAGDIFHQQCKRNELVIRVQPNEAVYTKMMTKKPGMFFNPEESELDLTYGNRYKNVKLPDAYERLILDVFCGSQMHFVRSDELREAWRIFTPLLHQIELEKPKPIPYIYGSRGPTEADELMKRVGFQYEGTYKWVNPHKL
Method: Pure RBCs (0.6% Hct) were incubated in 20 ml Ringer solution and treated with DMSO or different concentrations of costunolide. 24 hrs later, cell suspensions were centrifuged at 10° C., 228×g. Supernatants were removed and the cell pellets were stored at −80° C. until analyses. G6PDH activity was measured in lysates according to methods recommended by the International Committee for Standardization in Hematology (Di lorio E.E. 1981; l.c.). The activity was expressed in units per grams of hemoglobin (U/g Hb) (Ghashghaeinia M. et al. 2012; l.c.). RBC pellet was diluted 1:20 with distilled water. After 10 min (for GR 20 min) incubation at 37° C., the reactions were started by adding substrate or hemolysate and mixed properly. Then, 200 μL of each reaction mixture was transferred into a 96-well plate and changes in absorbance were recorded at 340 nm at 1 min intervals for 20 min at 37° C. (Infinite 200 Nanoquant, Tecan). All assays were run in triplicates and specific enzyme activity was calculated using the Lambert-Beer law. Activity =(ΔA×V/(ϵ×l×t))×f.
0.1 M Tris-HCl/0.5 mM EDTA, pH=8.0; 0.01 M MgCl2; 0.2 mM NADP^+; 20 μL of 1:20 hemolysate; 10 min incubation at 37° C.; start by addition of 0.6 mM 6PGA+0.6 mM G6P

Compound	basal eryptosis rate (human erythrocytes [1]; without costunolide, DMSO control 1.69%, FIG. 3A) [%]	cell shrinkage (human erythrocytes [2])	hemolysis (human erythrocytes [3])	GSH (reduced glutathione) level (human erythrocytes [4])	GSSG (oxidized glutathione) level (human erythrocytes [4])	eryptosis rate (human erythrocytes [1]; single treatment with increasing concentrations of costunolide, 24 h, FIG. 2)	G6PDH activity [5]
COc1ccc2c(c[n+](C)c3c4cc5c(cc4ccc23)OCO5)c1OC [chelerythrine, 1,2-Dimethoxy-12-methyl[1,3]benzodioxolo[5,6-c]phenanthridinium]	1.1	–	–	–	–	–	–
C=C1C(=O)O[C@@H]2/C=C(\C)CC/C=C(\C)CC[C@@H]12 [costunolide]	–	increased rates of eryptosis and cell shrinkage	not associated with hemolysis	deplete both the reduced (GSH) and the oxidized (GSSG) form of glutathione in a concentration-dependent manner	deplete both the reduced (GSH) and the oxidized (GSSG) form of glutathione in a concentration-dependent manner	increased rates of eryptosis	inhibit G6PDH activity completely
